Measurements published in patent US20260209220A1, “SUBSTITUTED TETRAHYDROPYRROLO-PYRIDINONE COMPOUNDS AND THEIR USE IN TREATING MEDICAL CONDITIONS” (Karuna Therapeutics, Inc., priority 2022, published 2026).

Assays:
hM4 receptors = biological target: T1, hM4 receptors (Homo sapiens, UniProt P08173); experiment: Human M4 PAM PERK assay (CHO cells, TR-FRET, with EC20 acetylcholine); assay type: cell-based
T1 construct: expressed in transfected cells; host or cells: CHO cells
T1 sequence (P08173 1-479): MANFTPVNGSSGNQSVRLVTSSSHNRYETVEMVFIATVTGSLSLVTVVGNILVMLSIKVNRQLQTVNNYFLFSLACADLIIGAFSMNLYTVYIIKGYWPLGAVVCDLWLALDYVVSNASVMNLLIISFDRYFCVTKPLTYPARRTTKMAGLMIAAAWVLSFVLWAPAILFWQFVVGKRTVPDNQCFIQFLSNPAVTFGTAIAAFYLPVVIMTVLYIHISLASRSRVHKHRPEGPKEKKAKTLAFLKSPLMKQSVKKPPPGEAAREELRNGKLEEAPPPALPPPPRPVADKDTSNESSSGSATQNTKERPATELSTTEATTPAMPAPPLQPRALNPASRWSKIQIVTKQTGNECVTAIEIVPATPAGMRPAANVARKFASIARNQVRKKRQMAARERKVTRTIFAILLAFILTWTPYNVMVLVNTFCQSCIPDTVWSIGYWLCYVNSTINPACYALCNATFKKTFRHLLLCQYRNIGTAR
Procedure, shortened: (§1)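 CHO cells expressing human or rat M4, serum-starved 4 h, then given compound (10-point, 10 μM top, ½-log) with EC20 acetylcholine (10 nM final) for 5 min at 37 °C. Lysates assayed for phospho-ERK by TR-FRET after 2 h detection at RT.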

rM4 receptors = biological target: T2, rM4 receptors (Rattus norvegicus, UniProt P08485); experiment: Rat M4 PAM PERK assay (CHO cells, TR-FRET, with EC20 acetylcholine); assay type: cell-based
T2 construct: expressed in transfected cells; host or cells: CHO cells
T2 sequence (P08485 1-478): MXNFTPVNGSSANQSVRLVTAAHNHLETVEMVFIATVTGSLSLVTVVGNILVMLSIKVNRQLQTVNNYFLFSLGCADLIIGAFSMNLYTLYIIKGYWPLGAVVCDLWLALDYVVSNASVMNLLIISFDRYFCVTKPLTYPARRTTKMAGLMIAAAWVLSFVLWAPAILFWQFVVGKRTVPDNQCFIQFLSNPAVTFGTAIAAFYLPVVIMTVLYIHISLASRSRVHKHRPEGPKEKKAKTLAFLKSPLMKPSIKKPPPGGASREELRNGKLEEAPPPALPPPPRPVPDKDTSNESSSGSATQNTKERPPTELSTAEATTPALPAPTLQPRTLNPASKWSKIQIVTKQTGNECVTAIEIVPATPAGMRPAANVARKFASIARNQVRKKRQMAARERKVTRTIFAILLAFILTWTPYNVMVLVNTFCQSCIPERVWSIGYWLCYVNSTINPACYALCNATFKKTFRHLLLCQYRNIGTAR
Procedure, shortened: as §1

human M4 receptor = biological target: T3, human M4 receptor (Homo sapiens, UniProt P08173); experiment: M4 GTPγS PAM assay (CHO-K1 membranes, 35S-GTP binding, with EC20 acetylcholine); assay type: biochemical; settings: with EC20 acetylcholine (40 nM)
T3 construct: expressed in transfected cells; host or cells: CHO-K1 cells (membranes)
T3 sequence (P08173 1-479): T1 sequence (P08173 1-479)
Experimental: The M4 GTPγS PAM method was used. Membranes were prepared for GTPgS binding assays from CHO-K1 cells stably expressing human M4 receptor. Briefly, cells were grown in 5-layer cell culture flasks. Cells were washed with 50 mL of PBS and then dissociated with 0.05% trypsin. Dissociated cells were then collected by centrifugation at 650×g for 8 minutes at 4° C. Pellets were washed again in PBS by centrifugation and resuspended in 30 mL of 20 mM HEPES, 10 mM EDTA, pH 7.4. After sitting on ice for 30 min, membranes were collected by centrifugation at 50000×g for 15′ at 4° C., resuspended in 30 mL of 20 mM HEPES, 0.1 mM EDTA, pH 7.4 and collected again by centrifugation. Pellets were then washed twice by centrifugation in 30 mL of 20 mM HEPES, pH 7.4, and stored at −80° C. until the day of the assay. On the day of the assay, pellets were thawed on ice and resuspended in 1 mL of 20 mM HEPES, pH 7.4, 10 mM MgCl2, 100 mM NaCl using dounce homogenization. Membrane protein concentration is determined by BCA protein assay (Promega, Madison, WI) according to Promega guidelines.
On the day of the assay, serial dilutions of test PAM compounds were brought up in assay buffer (20 mM HEPES, 10 mM MgCl2, 100 mM NaCl) at 4X final assay concentration. […] of membrane homogenates (containing […] of membrane protein) were prepared in assay buffer supplemented with GDP at […] final assay concentration (final assay concentration of GDP is 5 μM for M2 and 0.1 μM for M4) and dispensed into 96 well polypropylene, U-bottom Greiner plates. 25 ml of vehicle or test PAM compound at 4× of final assay concentration diluted in the assay buffer were added to membrane and plates are incubated for 10-15 minutes at room temperature with gentle shaking. Then, […] of EC20 acetylcholine in assay buffer at 4× final assay concentration was added to assay plates (EC20 final assay concentrations was 40 nM for human M4).
Plates were then incubated, with shaking, for an additional 10-15 minutes. […] of 0.4 nM 35S-GTP (Perkin Elmer, Waltham, MA) in assay buffer was added to assay mixtures. The binding reaction is left on the shaker for 1 hour at room temperature. Membranes in assay reactions were then transferred to GF/C filter plates (Unifilter, Perkin Elmer) and washed three times using a FilterMate Harvester (Perkin Elmer) with cold assay buffer containing no GDP. Filter plates were then dried at 40° C. overnight followed by the addition of […] of Beta Plate Scintillation liquid. Plates are top and bottom sealed before being read on TopCount scintillation counter (Perkin Elmer, Waltham, MA).

Row | Structure (SMILES) | EC50 (hM4 receptors) [nM] | EC50 (rM4 receptors) [nM] | EC50 (human M4 receptor) [nM]
1 | Cc1cc(=O)n(C)c2c1CN(C(=O)CC1CN(c3cnn(C4CC4)c3)C1)C2 [Compound I-37] | 200 to 1000 | > 1000 | 200 to 1000
2 | Cc1cc(=O)n(C)c2c1CN(C(=O)CC1CN(c3cccc(C(F)(F)F)c3)C1)C2 [Compound I-13] | 200 to 1000 | 200 to 1000 | 50 to 200
3 | Cc1c2c(n(C)c(=O)c1C)CN(C(=O)CC1CN(c3ccc(C#N)cc3)C1)C2 [Compound I-45] | < 50 | 50 to 200 | < 50
4 | Cc1c2c(n(C)c(=O)c1C)CN(C(=O)CC1CN(c3ccc(C4CC4)c(F)c3)C1C)C2 (single isomer, unassigned) [Compound I-61] | < 50 | < 50 | < 50
5 | Cc1c2c(n(C)c(=O)c1Cl)CN(C(=O)CC1CN(c3ccc(F)cc3)C1)C2 [Compound I-79] | < 50 | 50 to 200 | < 50
6 | Cc1cc(=O)n(C)c2c1CN(C(=O)CC1CN(c3ccnc(C(F)(F)F)n3)C1)C2 [Compound I-23] | 200 to 1000 | 200 to 1000 | 200 to 1000
7 | Cc1cc(=O)n(C)c2c1CN(C(=O)CC1CN(c3nc(C(F)(F)F)ns3)C1)C2 [Compound I-28] | 200 to 1000 | 200 to 1000 | 200 to 1000
8 | COc1cc(N2CC(CC(=O)N3Cc4c(C(F)(F)F)cc(=O)n(C)c4C3)C2)ccn1 [Compound I-92] | 200 to 1000 | > 1000 | > 1000
9 | Cc1c2c(n(C)c(=O)c1F)CN(C(=O)CC1CN(c3cnc(C(F)(F)F)cn3)C1)C2 [Compound I-90] | 200 to 1000 | 50 to 200 | 200 to 1000
10 | Cc1cc(=O)n(C)c2c1CN(C(=O)CC1CN(c3ccc(C#N)c(C(F)(F)F)c3)C1)C2 [Compound I-27] | 50 to 200 | 50 to 200 | 50 to 200
11 | COc1c2c(n(C)c(=O)c1C)CN(C(=O)CC1CN(c3ccc(C(F)(F)F)cc3)C1)C2 [Compound I-100] | 50 to 200 | 200 to 1000 | < 50
12 | Cc1c2c(n(C)c(=O)c1Cl)CN(C(=O)C(C)C1CN(c3ccnc(C(F)(F)F)c3)C1)C2 (single isomer, unassigned) [Compound I-82, 3-Chloro-1,4-dimethyl-6-(2-(1-(2-(trifluoromethyl)pyridin-4-yl)azetidin-3-yl)propanoyl)-1,5,6,7-tetrahydro-2H-pyrrolo[3,4-b]pyridin-2-one] | > 1000 | > 1000 | > 1000
13 | Cc1cc(=O)n(C)c2c1CN(C(=O)CC1CN(c3ncns3)C1)C2 [Compound I-18] | 200 to 1000 | > 1000 | 200 to 1000
14 | Cc1cc(=O)n(C)c2c1CN(C(=O)CC1CN(c3ncc(C(F)(F)F)s3)C1)C2 [Compound I-29] | 50 to 200 | 200 to 1000 | 50 to 200
15 | Cc1c2c(n(C)c(=O)c1C)CN(C(=O)CC1CN(c3ccc(C(C)(C)O)c(F)c3)C1)C2 [Compound I-59] | < 50 | 50 to 200 | < 50
16 | Cc1cc(=O)n(C)c2c1CN(C(=O)CC1CN(c3ccnc(C4CC4)c3)C1)C2 [Compound I-22] | 50 to 200 | 200 to 1000 | 200 to 1000

Row | Structure (SMILES) | EC50 (hM4 receptors) [nM] | EC50 (rM4 receptors) [nM] | EC50 (human M4 receptor) [nM]
17 | Cc1c2c(n(C)c(=O)c1C)CN(C(=O)CC1CN(c3nc(C4CC4)c(C(F)(F)F)s3)C1)C2 [Compound I-65, 6-(2-(1-(4-cyclopropyl-5-(trifluoromethyl)thiazol-2-yl)azetidin-3-yl)acetyl)-1,3,4-trimethyl-1,5,6,7-tetrahydro-2H-pyrrolo[3,4-b]pyridin-2-one] | 200 to 1000 | 200 to 1000 | < 50
18 | Cc1cc(=O)n(C)c2c1CN(C(=O)CC1CN(c3ccc(F)c(C(F)(F)F)c3)C1)C2 [Compound I-20] | 50 to 200 | 50 to 200 | 200 to 1000
19 | COc1cc(N2CC(CC(=O)N3Cc4c(C)cc(=O)n(C)c4C3)C2)cc(C(F)(F)F)n1 [Compound I-39, 6-(2-(1-(2-Methoxy-6-(trifluoromethyl)pyridin-4-yl)azetidin-3-yl)acetyl)-1,4-dimethyl-1,5,6,7-tetrahydro-2H-pyrrolo[3,4-b]pyridin-2-one] | 50 to 200 | 200 to 1000 | 200 to 1000
20 | Cc1cc(=O)n(C)c2c1CN(C(=O)CC1CN(c3nc(C(F)(F)F)cs3)C1)C2 [Compound I-31] | 50 to 200 | 50 to 200 | 200 to 1000
21 | Cc1cc(=O)n(C)c2c1[C@@H](C)N(C(=O)CC1CN(c3ccc(C(F)(F)F)cc3)C1)C2 [Compound I-117, (R)-1,4,5-trimethyl-6-(2-(1-(4-(trifluoromethyl)phenyl)azetidin-3-yl)acetyl)-1,5,6,7-tetrahydro-2H-pyrrolo[3,4-b]pyridin-2-one] | 200 to 1000 | 200 to 1000 | < 50
22 | Cc1cc(=O)n(C)c2c1C(C)N(C(=O)CC1CN(c3ccc(C(F)(F)F)cc3)C1)C2 (stereo not drawn) [Compound I-115] | 200 to 1000 | 200 to 1000 | 50 to 200
23 | Cc1cc(=O)n(C)c2c1CN(C(=O)CC1CN(c3nc(C4CC4)ns3)C1)C2 [Compound I-35] | 50 to 200 | 50 to 200 | 50 to 200
24 | Cc1c2c(n(C)c(=O)c1Cl)CN(C(=O)CC1CN(c3ccc(C(F)(F)F)cc3)C1)C2 [Compound I-68] | < 50 | < 50 | < 50
25 | Cc1cc(=O)n(C)c2c1CN(C(=O)CC1CN(c3cccc(F)c3C)C1)C2 [Compound I-33] | 50 to 200 | 200 to 1000 | 200 to 1000
26 | Cc1cc(=O)n(C)c2c1CN(C(=O)CC1CN(c3ccc(C(F)(F)F)cn3)C1)C2 [Compound I-8] | 200 to 1000 | > 1000 | > 1000
27 | Cc1c2c(n(C)c(=O)c1C)CN(C(=O)CC1CN(c3ccc(C(F)(F)F)cc3)C1)C2 [Compound I-43] | 50 to 200 | 50 to 200 | < 50
28 | Cc1c2c(n(C)c(=O)c1C)CN(C(=O)CC1CN(c3cc(F)cc(F)c3)C1)C2 [Compound I-56] | < 50 | 50 to 200 | 50 to 200
29 | Cc1cc(=O)n(C)c2c1CN(C(=O)CC1CN(c3ccc(F)cc3)C1)C2 [Compound I-11] | 200 to 1000 | 200 to 1000 | 200 to 1000
30 | Cc1cc(=O)n(C)c2c1CN(C(=O)CC1CN(c3cnn(C(F)(F)F)c3)C1)C2 [Compound I-34] | > 1000 | > 1000 | > 1000
31 | Cc1cc(=O)n(CC2CC2)c2c1CN(C(=O)CC1CN(c3ccc(C(F)(F)F)cc3)C1)C2 [Compound I-102] | 200 to 1000 | 200 to 1000 | 50 to 200
